Reference: the supplement of paper PMC11962398

Assays:
[1] = compound: T1, C[C@H]1CNCCN1c1nccc(-c2noc3c2CCC[C@@]32CCCc3sc(N)c(C#N)c32)n1 [BI-2493]; settings: 5 days
Procedure: (§1)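 PRISM pooled barcoded cancer cell line viability screen (Broad Institute) with BI-2493 at 8 doses in threefold dilutions from 0.00457 to 10 µmol/L, 5-day treatment; curves fitted per cell line. IC50 is undefined (placeholder) for resistant lines. AUC is capped at 1, and sensitivity is reported as 1 − AUC.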

[2] = compound: T1, BI-2493; experiment: 1 - AUC of viability dose-response curve (sensitivity) (fraction); higher = more sensitive; settings: 5 days
Procedure: as §1

SW1463_LARGE_INTESTINE
IC50 of cell viability [1]: 4.74 µM
1 - AUC of viability dose-response curve [2]: 0.177

SW1573_LUNG
IC50 of cell viability [1]: 7.72 µM
1 - AUC of viability dose-response curve [2]: 0.108

SW1710_URINARY_TRACT
IC50 of cell viability [1]: 7.21 µM
1 - AUC of viability dose-response curve [2]: 0.0685

SW1783_CENTRAL_NERVOUS_SYSTEM
IC50 of cell viability [1]: 7.49 µM
1 - AUC of viability dose-response curve [2]: 0.0474

SW1990_PANCREAS
IC50 of cell viability [1]: 0.926 µM
1 - AUC of viability dose-response curve [2]: 0.324

T3M5_THYROID
IC50 of cell viability [1]: 4.56 µM
1 - AUC of viability dose-response curve [2]: 0.162

T3M10_LUNG
IC50 of cell viability [1]: 5.96 µM
1 - AUC of viability dose-response curve [2]: 0.0884

T24_URINARY_TRACT
IC50 of cell viability [1]: > 10 µM
1 - AUC of viability dose-response curve [2]: 0.047

T47D_BREAST
IC50 of cell viability [1]: 4.07 µM
1 - AUC of viability dose-response curve [2]: 0.0937

TALL1_HAEMATOPOIETIC_AND_LYMPHOID_TISSUE
IC50 of cell viability [1]: 6.69 µM
1 - AUC of viability dose-response curve [2]: 0.0755

TANOUE_HAEMATOPOIETIC_AND_LYMPHOID_TISSUE
IC50 of cell viability [1]: 9.36 µM
1 - AUC of viability dose-response curve [2]: 0.0128

TASK1_CENTRAL_NERVOUS_SYSTEM
IC50 of cell viability [1]: 7.76 µM
1 - AUC of viability dose-response curve [2]: 0.0438

TC32_BONE
IC50 of cell viability [1]: 8.86 µM
1 - AUC of viability dose-response curve [2]: 0.0484

TC71_BONE
IC50 of cell viability [1]: 9.44 µM
1 - AUC of viability dose-response curve [2]: 0.0115

TC106_BONE
IC50 of cell viability [1]: 5.11 µM
1 - AUC of viability dose-response curve [2]: 0.108

TC205_BONE
IC50 of cell viability [1]: > 10 µM
1 - AUC of viability dose-response curve [2]: 0.082

TCCPAN2_PANCREAS
IC50 of cell viability [1]: 8.86 µM
1 - AUC of viability dose-response curve [2]: 0.0795

TCCSUP_URINARY_TRACT
IC50 of cell viability [1]: 9.48 µM
1 - AUC of viability dose-response curve [2]: 0.0247

TE1_OESOPHAGUS
IC50 of cell viability [1]: 9.58 µM
1 - AUC of viability dose-response curve [2]: 0.0344

TE4_OESOPHAGUS
IC50 of cell viability [1]: 4.83 µM
1 - AUC of viability dose-response curve [2]: 0.0912

TE5_OESOPHAGUS
IC50 of cell viability [1]: 9.08 µM
1 - AUC of viability dose-response curve [2]: 0.0423

TE6_OESOPHAGUS
IC50 of cell viability [1]: 4.43 µM
1 - AUC of viability dose-response curve [2]: 0.0969

TE8_OESOPHAGUS
IC50 of cell viability [1]: > 10 µM
1 - AUC of viability dose-response curve [2]: 0.0526

TE9_OESOPHAGUS
IC50 of cell viability [1]: 5.83 µM
1 - AUC of viability dose-response curve [2]: 0.107

TE10_OESOPHAGUS
IC50 of cell viability [1]: > 10 µM
1 - AUC of viability dose-response curve [2]: 0.146

TE11_OESOPHAGUS
IC50 of cell viability [1]: 4.31 µM
1 - AUC of viability dose-response curve [2]: 0.102

TE14_OESOPHAGUS
IC50 of cell viability [1]: 9.66 µM
1 - AUC of viability dose-response curve [2]: 0.00721

TE15_OESOPHAGUS
IC50 of cell viability [1]: 0.153 µM
1 - AUC of viability dose-response curve [2]: 0.381

TE617T_SOFT_TISSUE
IC50 of cell viability [1]: 3.75 µM
1 - AUC of viability dose-response curve [2]: 0.193

TEN_ENDOMETRIUM
IC50 of cell viability [1]: 9.58 µM
1 - AUC of viability dose-response curve [2]: 0.00891

TF1_HAEMATOPOIETIC_AND_LYMPHOID_TISSUE
IC50 of cell viability [1]: 0.352 µM
1 - AUC of viability dose-response curve [2]: 0.427

TFK1_BILIARY_TRACT
IC50 of cell viability [1]: 2.89 µM
1 - AUC of viability dose-response curve [2]: 0.173

TGBC1TKB_BILIARY_TRACT
IC50 of cell viability [1]: 7.28 µM
1 - AUC of viability dose-response curve [2]: 0.0559

TGBC18TKB_LARGE_INTESTINE
IC50 of cell viability [1]: 9.22 µM
1 - AUC of viability dose-response curve [2]: 0.103

TGBC52TKB_BILIARY_TRACT
IC50 of cell viability [1]: 1.47 µM
1 - AUC of viability dose-response curve [2]: 0.255

TGW_AUTONOMIC_GANGLIA
IC50 of cell viability [1]: 4.67 µM
1 - AUC of viability dose-response curve [2]: 0.123

TM31_CENTRAL_NERVOUS_SYSTEM
IC50 of cell viability [1]: 8.57 µM
1 - AUC of viability dose-response curve [2]: 0.0846

TM87_SOFT_TISSUE
IC50 of cell viability [1]: 5.06 µM
1 - AUC of viability dose-response curve [2]: 0.26

TOV21G_OVARY
IC50 of cell viability [1]: 5.42 µM
1 - AUC of viability dose-response curve [2]: 0.114

TT1TKB_LARGE_INTESTINE
IC50 of cell viability [1]: 1.08 µM
1 - AUC of viability dose-response curve [2]: 0.312

TT2609C02_THYROID
IC50 of cell viability [1]: > 10 µM
1 - AUC of viability dose-response curve [2]: 0.00366

TTC442_SOFT_TISSUE
IC50 of cell viability [1]: 5.84 µM
1 - AUC of viability dose-response curve [2]: 0.0621

TTC549_SOFT_TISSUE
IC50 of cell viability [1]: 5.34 µM
1 - AUC of viability dose-response curve [2]: 0.113

TTC642_SOFT_TISSUE
IC50 of cell viability [1]: 7.08 µM
1 - AUC of viability dose-response curve [2]: 0.0875

TTC709_SOFT_TISSUE
IC50 of cell viability [1]: 4.96 µM
1 - AUC of viability dose-response curve [2]: 0.16

TT_OESOPHAGUS
IC50 of cell viability [1]: 5.9 µM
1 - AUC of viability dose-response curve [2]: 0.191
